Tested on: Normal Human Astrocytes (NHA)
Assay: Long-term culturing of human astrocytes using medium containing inhibitor (Example 1)
Type: cell-based
Conditions: for Number of days up to day of final passage / Passage number: NHA, 41 days of culturing, Y 10 μM, A 0.5 μM
Description: Long-term culturing of human astrocytes was performed using the following materials, reagents, and products for culturing.
• Normal Human Astrocytes (NHA) (CC-2565, Lonza Group AG)
• Culture medium: AGM Astrocyte Growth Medium Bullet Kit (CC-3186, Lonza Group AG) (composition of AGM: basal medium, FBS (3% (v/v)), L-glutamine, ascorbic acid, hEGF, insulin, and antibiotic) • Inhibitor Y: CultureSure (registered trademark) Y-27632 (034-24024, FUJIFILM Wako Pure Chemical Corporation), final concentration: 10 μM • Inhibitor A: CultureSure (registered trademark) A-83-01(035-24113, FUJIFILM Wako Pure Chemical Corporation), final concentration: 0.5 μM • Cell detachment agent: Accutase (AT104, Innovative Cell Technologies, Inc.) • Cell buffer: phosphate buffered saline (Dulbecco's formula; without calcium and magnesium) (BNDSBN200, KAC Co., Ltd.) • Medium for cell freezing: CELLBANKER 1 (CB011 TaKaRa Bio Inc. (NIPPON ZENYAKU KOGYO CO., LTD.)) • Cell culturing dish 60 mm (150462, Thermo Fisher Scientific Inc.) • Cell culturing dish 100 mm (150466, Thermo Fisher Scientific Inc.) • Cell culturing dish 150 mm (150468, Thermo Fisher Scientific Inc.) • Stericup Quick Release-GP Sterile Vacuum Filtration System (S2GPU02RE, Merck Millipore) • Inhibitor-free medium for culture supernatant collection: Dulbecco's Modied Eagle Medium (DMEM) (C11995500CP, Gibco (registered trademark), Thermo Fisher Scientific Inc.) and N-2 Supplement (x100) (17502-048, Gibco (registered trademark), Thermo Fisher Scientific Inc.)
The long-term culturing was performed in accordance with the following procedure. A frozen tube of the human astrocyte cells (NHA) was thawed in a water bath at 37° C. Next, the lysed cells were transferred to the culture medium so that the total volume was 10 mL and subjected to centrifugation at 180×g for 3 minutes at room temperature, and then the medium was removed. The cells were divided into 4 groups; a group to which only the inhibitor Y was added (hereinafter, the NHA-Y group), a group to which only the inhibitor A was added (hereinafter, the NHA-A group), a group to which the inhibitor Y and the inhibitor A were added (hereinafter, the NHA-YA group), and a group to Ih no inhibitor was added (normal group).
The medium was replaced every other day or every two days with fresh culture medium containing each inhibitor (or not containing any inhibitor). When the confluency reached 80 to 90%, the cells were detached using the cell detachment agent, and the cells were suspended in the culture medium containing each inhibitor (or not containing any inhibitor) and passaged into a 6-well plate at a seeding density of 4.2×10^3 cells/cm^2. While continuing the passaging, the culturing was performed for 41 days in the culture medium containing each inhibitor (or not containing any inhibitor).
The cell passage number and the number of days up to the day of final passage in each group are indicated in the following Table 1, and the correlations between the number of culturing days and the total number of cells are indicated in Table 2.

SMILES	Number of days up to day of final passage	Passage number	Number of cells (culturing day 0)	Number of cells (culturing day 5)	Number of cells (culturing day 15)	Number of cells (culturing day 23)	Number of cells (culturing day 30)	Number of cells (culturing day 8)	Number of cells (culturing day 13)	Number of cells (culturing day 19)	Number of cells (culturing day 29)
Cc1cccc(-c2nn(C(=S)Nc3ccccc3)cc2-c2ccnc3ccccc23)n1 [A, 3-(6-methylpyridin-2-yl)-4-(4-quinolyl)-1-phenylthiocarbamoyl-1H-pyrazole]	30 days	4 times	8.00 ×10^4 cells	55.75 ×10^4 cells	264.81 ×10^4 cells	595.83 ×10^4 cells	1005.46 ×10^4 cells	–	–	–	–
C[C@@H](N)[C@H]1CC[C@H](C(=O)Nc2ccncc2)CC1 [Y]	29 days	5 times	8.00 ×10^4 cells	87.25 ×10^4 cells	–	–	–	245.39 ×10^4 cells	391.09 ×10^4 cells	733.30 ×10^4 cells	756.21 ×10^4 cells

— US20240360409A1, “METHOD FOR PRODUCING HIGHLY PROLIFERATIVE CELL, AND HIGHLY PROLIFERATIVE CELL AND USE THEREOF” (TOKYO MEDICAL UNIVERSITY, priority 2021, published 2024)
